Data set [1] has as its target T1, PDIA17 (Homo sapiens, UniProt O95994).
T1 construct: PDIA17 (recombinant protein ab64013, human, full length, E.coli, Abcam, Cambridge); purchased Abcam ab64013; host or cells: E. coli
T1 sequence (O95994 21-175): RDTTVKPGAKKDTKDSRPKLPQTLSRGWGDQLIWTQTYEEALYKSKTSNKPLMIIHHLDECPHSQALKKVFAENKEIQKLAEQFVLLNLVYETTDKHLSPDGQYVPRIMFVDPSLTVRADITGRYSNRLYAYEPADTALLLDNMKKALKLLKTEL
Nature of the data set: Insulin reduction turbidimetry assay, PDIA17. The format is biochemical. As for the experimental part:
The PDI inhibitor activity towards PDIA1, PDIA3 and PDIA17 was assessed as an increase in disulphide bond reduction in human insulin in the presence of DL-dithiotreitol (DTT) causing aggregation of its β-chain, analyzed by turbidimetry as presented earlier by Kalvins et al. and Chlopicki et al. (see Additional file 1: Methods for more details).
The PDI inhibitors’ activity towards PDIA1, PDIA3 and PDIA17 was assessed as an increase in disulphide bond reduction in human insulin in the presence of DTT causing aggregation of its β-chain, analyzed by turbidimetry as presented earlier by Kalvins et al. 2021 and Chlopicki et al., 2021. Briefly, the assay mixture for 96-well plates was prepared by dissolving in […] phosphate buffer (pH 7.6 for activity testing of PDIA1, PDIA3 and pH 8.0 for PDIA17), 6 µg/ml (96 nM) of PDIA1 (recombinant protein MBS9422429, human, full length, 18-508aa His-tag, E.coli, MyBioSource, San Diego, CA, USA), PDIA3 (recombinant protein MBS203583, 25-505aa, human, His-tag, E.coli, MyBioSource, San Diego, CA, USA) or PDIA17 (recombinant protein ab64013, human, full length, E.coli, Abcam, Cambridge), 2 mM EDTA and 0.08 mM DTT (D9779 Sigma-Aldrich, Steinheim, Germany). Stock solutions of C-3353, C-3380, C-3389 and C-3399 were freshly prepared in dimethyl sulfoxide (DMSO) and subsequently diluted to keep the final DMSO concentration in the assay mixture below 1%. Calculated amounts of compounds solutions were added into test wells, and the reaction was started by the addition of insulin (insulin 91077C, human recombinant; Sigma-Aldrich, Steinheim, Germany) and 0.08 mM of DTT. The final concentration of insulin and DTT in the assay mixture was 0.15 and 0.16 mM, respectively. The reaction rate was monitored at 650 nm on a Microplate Reader Infinite M1000 PRO for 60 minutes at 37°C. Turbidity values for the wells containing only the PDI isoform tested (background values) were subtracted from the turbidity values of the wells containing the tested PDI isoform and selected inhibitors. […]

Data set [2] deals with MDA-MB-231 cells. Nature of the data set: MTT cell viability assay, MDA-MB-231. Type of data set: cell-based. The note with it: Homo sapiens; MDA-MB-231 (low PDIA17), 72 h; read-out: IC50, MTT proliferation. The procedure: (§1) The proliferation rate of the cells was measured using an MTT assay. (see Additional file 1: Methods for details). IC50 parameter was determined as previously described.
(§2) The proliferation rate of the cells was measured using an MTT assay. The cells were seeded on 96-well plates (Sarstedt, Warsaw, Poland) at a density of MDA-MB-231, BALB/3T3 and MCF10A 1×10^4 cells/well, MCF-7 0.75×10^4 cells/well. Cells were incubated in the appropriate culture medium for 24 h before adding the tested compounds. Cells were then treated with each compound in four concentrations in the range 100–0.1 µg/mL. […] Absorbance was measured using a Bio Tek Hybrid H4 reader (BioTek Instruments, USA) at 570 nm wavelength.
(§3) Compounds at each concentration were tested in triplicate in a single experiment, and each experiment was repeated at least three times independently.
A general note: Tetrazolium dyes change colour on reduction, which living cells bring about.

Data set [3] has as its system MCF-7 cells. The data set can be described thus: MTT cell viability assay, MCF-7. The note with it: Homo sapiens, MCF7; MCF-7 (high PDIA17), 72 h; read-out: IC50, MTT proliferation. The format is cell-based. The procedure:
as §1, §2, §3

Data set [4] is described as follows: MTT cytotoxicity against regular cell line BALB/3T3. Type of data set: cell-based. The note with it: balb/3t3 cells, BALB/3T3 mouse fibroblasts, read-out: IC50, cytotoxicity against regular cell line. The procedure: as §1
(§4) To test cytotoxicity of compounds used in this study against regular cell lines, BALB/3T3 and MCF10A cells were used, mouse fibroblast and human breast epithelial cell line, respectively.
as §2, §3

Data set [5] can be described thus: MTT cytotoxicity against regular cell line MCF10A. Type of data set: cell-based. The note with it: MCF10A human breast epithelial cells, read-out: IC50, cytotoxicity against regular cell line. The procedure:
as §1, §4, §2, §3

Data set [6] has as its system MCF-7 cells. Nature of the data set: Cancer cell adhesion to collagen type I, MCF-7. The format is cell-based. The following applies: Homo sapiens, MCF7. As for the experimental part:
(§5) Detailed procedures for the cancer cell adhesion studies are described in Additional file 1: Methods.
(§6) Briefly, 96-well plates (Corning, Tewksbury, MA, USA) were coated with collagen type I at a concentration of 10 μg/mL (Sigma-Aldrich, Steinheim, Germany) and incubated at 4°C overnight. After 24 h, the plates were blocked with 1% bovine serum albumin (BSA) (Sigma-Aldrich, Steinheim, Germany) in DPBS buffer (Gibco, Scotland, UK) for 60 minutes at 37°C. […] Then, cancer cells were left to adhere to collagen I for 30 min at 37°C. Non-adherent cells were gently washed twice with DPBS, and attached cells were counted in nine randomly selected visual fields for each well using a CQ1 image cytometer (Yokogawa, Tokyo, Japan). Experiments were conducted twice in six technical replicates. The images were analyzed using Columbus 2.4.2 software (Perkin Elmer, Waltham, MA, USA).

For data set [7], the system named is MDA-MB-231 cells. The data set can be described thus: Cancer cell adhesion to collagen type I, MDA-MB-231. Type of data set: cell-based. The following applies: Homo sapiens. The procedure:
as §5, §6

The test system of data set [8] is PDIA1. The following applies: recombinant human PDIA1, insulin/DTT turbidimetry, pH 7.6; cited from earlier work.
The test system of data set [9] is PDIA3. The following applies: recombinant human PDIA3, insulin/DTT turbidimetry, pH 7.6; cited from earlier work.
For data set [10], the system named is MCF-7 cells. The data set can be described thus: ECIS wound healing migration assay, MCF-7. The format is cell-based. The note with it: Homo sapiens, MCF7, tested 10, 30, 100 µM, read-out: Concentration substantially reducing migration rate (ECIS wounding assay). From the text:
(§7) The migration of MCF-7 and MDA-MB-231 cells was monitored using real-time quantitative wound healing assays and 96W1E + ECIS arrays (Applied Biophysics, Troy, NY, USA) according to the procedure reported by Stojak et al. with minor modifications and C-3353 inhibitor as a tested compound. Detailed procedures for the ECIS studies are described in Additional file 1: Methods.
(§8) The migration of MCF-7 and MDA-MB-231 cells was monitored using real-time quantitative wound healing assays and 96W1E+ ECIS arrays (Applied Biophysics, Troy, NY, USA) according to the procedure reported by Stojak et al. (2020) with minor modifications. To this end, MDA-MB-231 cells were seeded at a density of 3 × 10^4 per well and MCF-7 cells at a density of 6 × 10^4 cells per well. Before the cell seeding procedure, the 96W1E+ plate was pretreated with 10 mM L-cysteine (Sigma-Aldrich, Steinheim, Germany) according to the manufacturer’s instruction. Immediately after cell seeding, resistance (Ω), capacitance (µF) and impedance (Ω) measurements were initiated at frequencies from 250 Hz to 64 kHz (250, 500, 1000, 2000, 4000, 8000, 16,000, 32,000 and 64,000 Hz) using the multiple frequency time mode. […] The healing process was measured continuously as cells migrated onto the electrode. The area under the curve (AUC) was quantified and normalized to the untreated control. […]

Data set [11] concerns MDA-MB-231 cells. Nature of the data set: ECIS wound healing migration assay, MDA-MB-231. The format is cell-based. The following applies: Homo sapiens, tested 10, 30, 100 µM, read-out: Concentration effectively inhibiting migration (ECIS wounding assay).
Source text: as §7, §8

Turning to `COC(=O)C1CN1S(=O)(=O)c1ccc2c(N(C)C)cccc2c1` (stereo not drawn) [Inhibitor C-3399], the IC50 in data set [1] was more than 200 µM; in data set [2], 8.69 ± 0.89 µM; in [3], 11.1 ± 0.78 µM; in [8], 0.12 µM; in data set [9], 4 µM. Further, in data set [1] (recombinant human PDIA17, insulin/DTT turbidimetry, pH 8.0, n.a. = not active in range of concentrations used), the “IC50 PDIA17” value is “not effective”. Besides, the CC50 at 72 h in data set [4] amounted to 38.2 ± 10.3 µM; in data set [5], 17.9 ± 1.15 µM. The activity at 3 µM in data set [6] (MCF-7, inhibitor 3 µM) was approximately 50%. Further, the activity at 10 µM in [7] (MDA-MB-231, inhibitor 10 µM) was approximately 75%. In addition, the “IC50 PDIA3” value in [9] is reported as “low micromolar range”.
For `COC(=O)C1CN1S(=O)(=O)c1ccc(F)cc1F` (stereo not drawn) [Inhibitor C-3353], the IC50 in data set [1] is 20.1 µM; in data set [2], 87.4 ± 9.42 µM; in data set [3], 22.5 ± 6.42 µM; in [8] it was 5 µM; in [9] it was 143 µM. In addition, the CC50 at 72 h in data set [4] was more than 360 µM; in data set [5], 75.6 ± 4.05 µM. The minimal effective concentration was 3 µM in data set [6] (MCF-7, read-out: Concentration inhibiting adhesion to collagen); 50 µM in [7] (MDA-MB-231, read-out: Concentration inhibiting adhesion to collagen); not below 30 µM in data set [10]; 100 µM in [11]. Moreover, the “IC50 PDIA1” value in data set [8] is “inhibitory effect on PDIA1”. Also, the “IC50 PDIA3” value in data set [9] is given as “not on PDIA3”.

(Values after paper PMC9208212, “Comparison of anti-cancer effects of novel protein disulphide isomerase (PDI) inhibitors in breast cancer cells characterized by high and low PDIA17 expression” (Cancer Cell International, 2022).)
